For assay [1], the target named is T1, human type 2 5α-reductase (Homo sapiens, UniProt P31213).
T1 sequence (P31213 1-254): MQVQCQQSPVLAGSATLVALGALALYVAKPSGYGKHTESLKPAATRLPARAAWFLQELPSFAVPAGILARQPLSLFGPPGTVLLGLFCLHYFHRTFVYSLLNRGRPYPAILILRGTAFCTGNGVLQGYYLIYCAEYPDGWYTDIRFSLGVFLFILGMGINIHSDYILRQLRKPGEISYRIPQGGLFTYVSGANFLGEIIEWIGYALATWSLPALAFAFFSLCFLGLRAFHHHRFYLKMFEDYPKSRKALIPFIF
As to the kind of experiment: 5α-reductase in vitro inhibitory activity, human type 2.

The target of assay [2] is T2, human type 1 5α-reductase (Homo sapiens, UniProt P18405).
T2 sequence (P18405 1-259): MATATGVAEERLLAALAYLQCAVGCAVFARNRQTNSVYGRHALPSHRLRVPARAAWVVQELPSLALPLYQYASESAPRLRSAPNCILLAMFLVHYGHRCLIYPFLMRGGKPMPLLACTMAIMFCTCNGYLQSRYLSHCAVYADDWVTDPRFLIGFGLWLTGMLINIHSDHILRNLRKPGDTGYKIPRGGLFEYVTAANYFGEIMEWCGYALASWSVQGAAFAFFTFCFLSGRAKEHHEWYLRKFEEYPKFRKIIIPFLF
As to the kind of experiment: 5α-reductase in vitro inhibitory activity, human type 1.
Experimental: Microsomes were prepared by homogenization of the tissue or cells, followed by differential centrifugation of the homogenate. […] Corresponding incubations were carried out with no test compound as a control study.
For type 2 IC50 measurements, assay components except testosterone were preincubated for 20 minutes at pH 6.0, and following the addition of 8nM testosterone the assays were allowed to proceed for 20-40 minutes. The percentage of conversion of testosterone to DHT in the presence of test compounds compared to the corresponding conversion in the control study was estimated using high pressure liquid chromatography (HPLC) with radiochemical detection.

In the case of `C[C@]12CC[C@H]3[C@@H](CNC4=C(Cl)C(=O)CC[C@@]43C)[C@@H]1CC[C@@H]2C(=O)Nc1cc(C(F)(F)F)ccc1C(F)(F)F` [Compound 126, 17β-N-(2,5-bis(Trifluoromethyl))phenyl-carbamoyl-6-azaandrost-4-chloro-4-en-3-one], the IC50 in assay [1] and in assay [2] was < 10 nM each time.

Regarding `CC(C)(C)c1ccc(C2(NC(=O)[C@H]3CC[C@H]4[C@@H]5CNC6=CC(=O)CC[C@]6(C)[C@H]5CC[C@]34C)CCCCC2)cc1` [Compound 122, 17β-N-1-(4-t-Butylphenyl)cyclohexyl-carbamoyl-6-azaandrost-4-en-3-one], the IC50 in assay [1] and in assay [2] was < 10 nM each time.

As for `CCc1cc(-c2ccc(Cl)cc2)cc(CC)c1NC(=O)[C@H]1CC[C@H]2[C@@H]3CNC4=CC(=O)CC[C@]4(C)[C@H]3CC[C@]12C` [Compound 140, 17β-N-(2,6-Diethyl-4-(4-chlorophenyl))phenyl-carbamoyl-6-azaandrost-4-en-3-one], the IC50 in assay [1] and in assay [2] was < 10 nM each time.

For the compound `CC(C)(C)c1ccc(NC(=O)[C@H]2CC[C@H]3[C@@H]4CNC5=CC(=O)CC[C@]5(C)[C@H]4CC[C@]23C)c([N+](=O)[O-])c1` [Compound 82, 17β-N-(2-Nitro-4-t-butyl)phenyl-carbamoyl-6-azaandrost-4-en-3-one], the IC50 in assay [1] and in assay [2] was < 10 nM each time.

As to `CC(C)(C)c1ccc(C2(NC(=O)[C@H]3CC[C@H]4[C@@H]5CNC6=CC(=O)CC[C@]6(C)[C@H]5CC[C@]34C)CCOCC2)cc1` [Compound 145, 17β-N-4-(4-t-Butylphenyl)tetrahydropyranyl-carbamoyl-6-azaandrost-4-en-3-one], the IC50 in assay [1] and in assay [2] was < 10 nM in each case.

`CC(C)(C)c1cc(NC(=O)[C@H]2CC[C@H]3[C@@H]4CNC5=CC(=O)CC[C@]5(C)[C@H]4CC[C@]23C)cc(C(C)(C)C)c1` [Compound 86, 17β-N-(3,5-Di-t-butyl)phenyl-carbamoyl-6-azaandrost-4-en-3-one]: the IC50 in assay [1] and in assay [2] was < 10 nM in each case.

Turning to `C[C@]12CC[C@H]3[C@@H](CNC4=CC(=O)CC[C@@]43C)[C@@H]1CC[C@@H]2C(=O)C1CC2CCC1C2` (stereo partly drawn) [Compound 68, 17β-(1-Oxo-1-(2-norbornyl)methyl)-6-azaandrost-4-en-3-one], the figures for the IC50 in assay [1] and in assay [2] were < 10 nM and 10 to 100 nM, respectively.

Regarding `CC(NC(=O)[C@H]1CC[C@H]2[C@@H]3CNC4=CC(=O)CC[C@]4(C)[C@H]3CC[C@]12C)(c1ccc(Cl)cc1)c1ccc(Cl)cc1` [Compound 66, 17β-N-(1,1-Di-4-chlorophenyl)ethyl-carbamoyl-6-azaandrost-4-en-3-one], the results for the IC50 in assay [1] and in assay [2] were < 10 nM and > 100 nM, respectively.

Turning to `COc1cc(Cl)cc(NC(=O)[C@H]2CC[C@H]3[C@@H]4CNC5=CC(=O)CC[C@]5(C)[C@H]4CC[C@]23C)c1` [Compound 113, 17β-N-(3-Methoxy-5-chloro)phenyl-carbamoyl-6-azaandrost-4-en-3-one], the IC50 (as a rule, the concentration at which inhibition is half-maximal) is < 10 nM in assay [1] and 10 to 100 nM in assay [2].

For `CCN(CC)C(=O)c1ccc(C(C)(C)C)c(NC(=O)[C@H]2CC[C@H]3[C@@H]4CNC5=CC(=O)CC[C@]5(C)[C@H]4CC[C@]23C)c1` [Compound 105, 17β-N-(2-t-Butyl-5-N,N-diethylcarbamoyl)phenyl-carbamoyl-6-azaandrost-4-en-3-one], the concentration for half-maximal inhibition (IC50) in assay [1] and in assay [2] was < 10 nM throughout.

With `CCc1cc(Br)cc(CC)c1NC(=O)[C@H]1CC[C@H]2[C@@H]3CNC4=CC(=O)CC[C@]4(C)[C@H]3CC[C@]12C` [Compound 70, 17β-N-(2,6-Diethyl-4-bromo)phenyl-carbamoyl-6-azaandrost-4-en-3-one], the IC50 in assay [1] is < 10 nM; in assay [2], 10 to 100 nM.

As for `CC1=C2NC[C@H]3[C@@H]4CC[C@H](C(=O)Nc5cc(C(F)(F)F)ccc5C(C)(C)C)[C@@]4(C)CC[C@@H]3[C@@]2(C)CCC1=O` [Compound 117, 17β-N-(2-t-Butyl-5-trifluoromethyl)phenyl-carbamoyl-6-azaandrost-4-methyl-4-en-3-one], the IC50 in assay [1] and in assay [2] was < 10 nM in each case.

The record behind these values is patent EP0674651B1, “SUBSTITUTED 6-AZAANDROSTENONES” (priority 1992, dated 1994).
